Like-named read-outs stand apart in the source and are kept apart here.
Target: T1, F508del in NIH 3T3 cells (Homo sapiens, UniProt P13569, DEL508-508)
T1 construct: expressed in transfected cells
Test: 3T3 assay: membrane potential optical assay for F508del correction
Type: cell-based
Settings: for EC50: read-out: 3T3 EC50
Excerpt: 1. Membrane Potential Optical Methods for Assaying F508del Modulation Properties of Compounds
The assay utilizes fluorescent voltage sensing dyes to measure changes in membrane potential using a fluorescent plate reader (e.g., FLTPR III, Molecular Devices, Inc.) as a readout for increase in functional F508del in NIH 3T3 cells. The driving force for the response is the creation of a chloride ion gradient in conjunction with channel activation by a single liquid addition step after the cells have previously been treated with compounds and subsequently loaded with a voltage sensing dye.
2. Identification of Corrector Compounds
To identify correctors of F508del, a single-addition HTS assay format was developed. This HTS assay utilizes fluorescent voltage sensing dyes to measure changes in membrane potential on the FLIPR III as a measurement for increase in gating (conductance) of F508del in F508del NUT 3T3 cells. The F508del NUT 3T3 cell cultures were incubated with the corrector compounds at a range of concentrations for 18-24 hours at 37° C., and subsequently loaded with a redistribution dye. The driving force for the response is a Cl^− ion gradient in conjunction with channel activation with forskolin in a single liquid addition step using a fluorescent plate reader such as FLIPR III.
Bath Solution #1: (in mM) NaCl 160, KCl 4.5, CaCl2 2, MgCl2 1, HEPES 10, pH 7.4 with NaOH.
Chloride-free bath solution: Chloride salts in Bath Solution #1 (above) are substituted with gluconate salts.
NIH3T3 mouse fibroblasts stably expressing F508del were used for optical measurements of membrane potential. The cells were maintained at 37° C. in 5% CO2 and 90% humidity in Dulbecco's modified Eagle's medium supplemented with 2 mM glutamine, 10% fetal bovine serum, 1×NEAA, b-ME, 1×pen/strep, and 25 mM HEPES in 175 cm^2 culture flasks. For all optical assays, the cells were seeded at ˜20,000/well in 384-well Matrigel-coated plates. For the correction assays, the cells were cultured at 37° C. with and without compounds for 16-24 hours.

[1] = NIH3T3, NIH 3T3 cells, F508del, read-out: 3T3 Max Activity (%)
[2] = NIH3T3, read-out: 3T3 Max Activity (%)

T1 sequence (P13569 with tags, fused parts or gaps DEL508-508): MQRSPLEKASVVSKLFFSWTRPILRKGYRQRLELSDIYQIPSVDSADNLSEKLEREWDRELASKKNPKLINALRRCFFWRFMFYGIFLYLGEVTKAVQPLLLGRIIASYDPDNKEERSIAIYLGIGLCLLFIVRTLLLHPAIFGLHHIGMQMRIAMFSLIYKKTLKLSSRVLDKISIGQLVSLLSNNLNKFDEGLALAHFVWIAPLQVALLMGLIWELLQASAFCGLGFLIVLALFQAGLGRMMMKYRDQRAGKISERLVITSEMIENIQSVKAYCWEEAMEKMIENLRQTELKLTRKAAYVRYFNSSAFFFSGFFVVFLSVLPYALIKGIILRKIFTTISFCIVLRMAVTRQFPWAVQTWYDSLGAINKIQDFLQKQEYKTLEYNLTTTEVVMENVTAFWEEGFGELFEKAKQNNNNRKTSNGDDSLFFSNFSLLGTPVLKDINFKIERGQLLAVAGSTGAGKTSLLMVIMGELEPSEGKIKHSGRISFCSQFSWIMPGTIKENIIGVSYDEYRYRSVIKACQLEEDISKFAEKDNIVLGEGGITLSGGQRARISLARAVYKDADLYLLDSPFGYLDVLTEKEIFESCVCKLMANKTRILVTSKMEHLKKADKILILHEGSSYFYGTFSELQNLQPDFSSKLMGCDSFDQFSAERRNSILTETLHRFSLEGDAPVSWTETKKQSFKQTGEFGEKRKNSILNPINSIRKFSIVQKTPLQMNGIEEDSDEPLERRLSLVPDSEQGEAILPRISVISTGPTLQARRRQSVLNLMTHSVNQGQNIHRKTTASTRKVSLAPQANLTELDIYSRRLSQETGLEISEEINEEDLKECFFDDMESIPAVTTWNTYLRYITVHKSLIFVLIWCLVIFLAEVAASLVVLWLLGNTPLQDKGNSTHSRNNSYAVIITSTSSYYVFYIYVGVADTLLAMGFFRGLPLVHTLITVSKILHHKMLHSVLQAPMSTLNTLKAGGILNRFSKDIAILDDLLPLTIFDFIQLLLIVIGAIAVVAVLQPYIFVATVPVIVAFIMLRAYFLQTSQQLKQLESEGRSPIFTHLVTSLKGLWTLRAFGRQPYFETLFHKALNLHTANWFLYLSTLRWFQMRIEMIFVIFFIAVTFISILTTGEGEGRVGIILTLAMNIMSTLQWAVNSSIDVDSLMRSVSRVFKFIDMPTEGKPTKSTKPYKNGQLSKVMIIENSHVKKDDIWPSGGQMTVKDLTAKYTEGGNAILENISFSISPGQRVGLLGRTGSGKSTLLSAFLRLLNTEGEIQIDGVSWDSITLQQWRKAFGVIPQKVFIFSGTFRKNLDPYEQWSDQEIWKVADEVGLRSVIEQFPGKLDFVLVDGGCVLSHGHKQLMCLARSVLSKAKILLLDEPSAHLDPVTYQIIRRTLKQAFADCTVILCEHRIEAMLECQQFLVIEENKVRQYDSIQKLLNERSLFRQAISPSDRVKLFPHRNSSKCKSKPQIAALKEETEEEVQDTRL

| SMILES | Emax [1] | EC50 (NIH 3T3 cells, F508del) | Emax [2] |
| --- | --- | --- | --- |
| COC(=O)c1sc(NS(=O)(=O)c2ccccc2)nc1-c1ccc(C)cc1 [Compound 13, methyl 2-(benzenesulfonamido)-4-(p-tolyl)thiazole-5-carboxylate] | > 60% | 3 to 30 µM |  |
| O=S(=O)(Nc1nn(-c2ccccc2)cc1C1CCCCC1)c1ccccc1 [Compound 84, N-(4-cyclohexyl-1-phenyl-pyrazol-3-yl)benzenesulfonamide] | < 30% |  |  |
| Cc1cc(C)c(-n2nc(NS(=O)(=O)c3ccccc3)cc2Br)c(C)c1 [Compound 67, N-[5-bromo-1-(2,4,6-trimethylphenyl)pyrazol-3-yl]benzenesulfonamide] | > 60% | 1 to 3 µM |  |
| O=S(=O)(Nc1ccnn1C1CCCCC1)c1ccccc1 [Compound 79, N-(2-cyclohexylpyrazol-3-yl)benzenesulfonamide] | < 30% |  |  |
| Cc1ccc(-n2nc(NS(=O)(=O)c3ccccc3)cc2C)cc1 [Compound 100, N-[5-methyl-1-(p-tolyl)pyrazol-3-yl]benzenesulfonamide] | < 30% |  |  |
| O=C(NCc1ccccc1)c1sc(NS(=O)(=O)c2ccccc2)nc1-c1ccccc1 [Compound 14, 2-(benzenesulfonamido)-N-benzyl-4-phenyl-thiazole-5-carboxamide] | 30 to 60% | 3 to 30 µM |  |
| Cc1cc(C)c(-n2cc(-c3ccccc3)c(NS(=O)(=O)c3ccccc3)n2)c(C)c1 [Compound 96, N-[4-phenyl-1-(2,4,6-trimethylphenyl)pyrazol-3-yl]benzenesulfonamide] | 30 to 60% | < 1 µM |  |
| CCCNC(=O)c1sc(NS(=O)(=O)c2ccccc2)nc1-c1ccccc1 [Compound 39, 2-(benzenesulfonamido)-4-phenyl-N-propyl-thiazole-5-carboxamide] | < 30% |  |  |
| Cc1cc(C)c(-n2nc(NS(=O)(=O)c3ccccc3)cc2C(C)C)c(C)c1 [Compound 66, N-[5-isopropyl-1-(2,4,6-trimethylphenyl)pyrazol-3-yl]benzenesulfonamide] | 30 to 60% | 1 to 3 µM |  |
| CCOC(=O)c1sc(NS(=O)(=O)c2ccccc2)nc1-c1ccccc1 [Compound 24, ethyl 2-(benzenesulfonamido)-4-phenyl-thiazole-5-carboxylate] | > 60% | 3 to 30 µM |  |
| Cc1cc(C)c(-n2nc(NS(=O)(=O)c3ccccc3)cc2-c2ccccc2Oc2ccccc2)c(C)c1 [Compound 55, N-[5-(2-phenoxyphenyl)-1-(2,4,6-trimethylphenyl)pyrazol-3-yl]benzenesulfonamide] | > 60% | < 1 µM |  |
| Cc1cc(C)c(-n2nc(NS(=O)(=O)c3ccccc3)cc2C(C)(C)C)c(C)c1 [Compound 53, N-[5-tert-butyl-1-(2,4,6-trimethylphenyl)pyrazol-3-yl]benzenesulfonamide] | < 30% |  |  |
| Cc1cc(C)c(-n2nc(NS(=O)(=O)c3ccccc3)cc2-c2ccccc2C)c(C)c1 [Compound 62] | > 60% | < 1 µM |  |
| C=C(C)c1cc(NS(=O)(=O)c2ccccc2)nn1-c1c(C)cc(C)cc1C [Compound 65, N-[5-isopropenyl-1-(2,4,6-trimethylphenyl)pyrazol-3-yl]benzenesulfonamide] | > 60% | 1 to 3 µM |  |
| O=S(=O)(Nc1nn(-c2cccc(Cl)c2)cc1-c1ccc(Cl)cc1)c1ccccc1 [Compound 88, N-[1-(3-chlorophenyl)-4-(4-chlorophenyl)pyrazol-3-yl]benzenesulfonamide] | < 30% |  |  |
| O=S(=O)(Nc1nc(-c2ccccc2)c(-c2ccccc2)s1)c1ccccc1 [Compound 7, N-(4,5-diphenylthiazol-2-yl)benzenesulfonamide] |  | 1 to 3 µM | > 60% |
| Cc1cc(C)c(-n2nc(NS(=O)(=O)c3ccccc3)cc2-c2ccccc2)c(C)c1 [Compound 68, N-[5-phenyl-1-(2,4,6-trimethylphenyl)pyrazol-3-yl]benzenesulfonamide] | > 60% | 1 to 3 µM |  |
| CCc1sc(NS(=O)(=O)c2ccccc2)nc1-c1ccccc1 [Compound 21, N-(5-ethyl-4-phenyl-thiazol-2-yl)benzenesulfonamide] | > 60% | 3 to 30 µM |  |
| O=S(=O)(Nc1nn(Cc2ccccc2)cc1-c1cccc(Cl)c1)c1ccccc1 [Compound 109, N-[1-benzyl-4-(3-chlorophenyl)pyrazol-3-yl]benzenesulfonamide] | < 30% |  |  |
| O=S(=O)(Nc1onc(-c2ccc(Cl)cc2)c1-c1ccc(Cl)cc1)c1ccccc1 [Compound 1, N-[3,4-bis(4-chlorophenyl)isoxazol-5-yl]benzenesulfonamide] |  | 1 to 3 µM | 30 to 60% |
| C=C(C)c1cn(-c2cccc(Cl)c2)nc1NS(=O)(=O)c1ccccc1 [Compound 86, N-[1-(3-chlorophenyl)-4-isopropenyl-pyrazol-3-yl]benzenesulfonamide] | 30 to 60% | 3 to 30 µM |  |
| Cc1sc(NS(=O)(=O)c2ccccc2)nc1-c1ccccc1 [Compound 23, N-(5-methyl-4-phenyl-thiazol-2-yl)benzenesulfonamide] | > 60% | 3 to 30 µM |  |
| O=S(=O)(Nc1nc(-c2ccccc2)c(Oc2ccccc2)s1)c1ccccc1 [Compound 11, N-(5-phenoxy-4-phenyl-thiazol-2-yl)benzenesulfonamide] | < 30% |  |  |
| CCOC(=O)c1nc(NS(=O)(=O)c2ccccc2)sc1-c1ccccc1 [Compound 41, ethyl 2-(benzenesulfonamido)-5-phenyl-thiazole-4-carboxylate] | 30 to 60% | 1 to 3 µM |  |
| Cc1ccc(-n2nc(NS(=O)(=O)c3ccccc3)cc2C(C)(C)C)cc1 [Compound 80, N-[5-tert-butyl-1-(p-tolyl)pyrazol-3-yl]benzenesulfonamide] | 30 to 60% |  |  |

Second part, led by results:

| Emax [1] | EC50 (NIH 3T3 cells, F508del) | SMILES | Emax [2] |
| --- | --- | --- | --- |
| < 30% |  | CC1CN(c2nc(NS(=O)(=O)c3ccccc3)cc(Oc3ccccc3)n2)C(C)(C)C1 (stereo not drawn) [Compound 129, N-[6-phenoxy-2-(2,2,4-trimethylpyrrolidin-1-yl)pyrimidin-4-yl]benzenesulfonamide] |  |
| > 60% | 1 to 3 µM | O=S(=O)(Nc1cc(-c2ccccc2)nc(-c2ccccc2)n1)c1ccccc1 [Compound 131, N-(2,6-diphenylpyrimidin-4-yl)benzenesulfonamide] |  |
| < 30% |  | Cc1cccc(C)c1-c1cnc(N2CCN(C)CC2)c(NS(=O)(=O)c2ccccc2)n1 [Compound 122, N-[6-(2,6-dimethylphenyl)-3-(4-methylpiperazin-1-yl)pyrazin-2-yl]benzenesulfonamide] |  |
| > 60% | 1 to 3 µM | O=S(=O)(Nc1ncc(-c2ccccc2)nc1-c1ccccc1)c1ccccc1 [Compound 118, N-(3,5-diphenylpyrazin-2-yl)benzenesulfonamide] |  |
| > 60% | 3 to 30 µM | Cc1cc(NS(=O)(=O)c2ccccc2)nc(-c2ccc(C)c(C)c2)c1 [Compound 153] |  |
| 30 to 60% | 3 to 30 µM | Cc1cc(C)cc(-c2cc(C)cc(NS(=O)(=O)c3ccccc3)n2)c1 [Compound 151] |  |
| 30 to 60% | 1 to 3 µM | Cc1cccc(C)c1-c1cnc(NCc2ccccc2)c(NS(=O)(=O)c2ccccc2)n1 [Compound 119, N-[3-(benzylamino)-6-(2,6-dimethylphenyl)pyrazin-2-yl]benzenesulfonamide] |  |
| < 30% |  | Cc1cccc(C)c1-c1cnc(Oc2ccccc2)c(NS(=O)(=O)c2ccccc2)n1 [Compound 121, N-[6-(2,6-dimethylphenyl)-3-phenoxy-pyrazin-2-yl]benzenesulfonamide] |  |
| 30 to 60% | 1 to 3 µM | O=S(=O)(NC1=NC(c2ccccc2)C=C(c2ccccc2)S1)c1ccccc1 (stereo not drawn) [Compound 117, N-(4,6-diphenyl-4H-1,3-thiazin-2-yl)benzenesulfonamide] |  |
| > 60% | 3 to 30 µM | Cc1cc(NS(=O)(=O)c2ccccc2)nc(-c2ccc(C)cc2C)c1 [Compound 152] |  |
| > 60% | 1 to 3 µM | Cc1ccc(-c2nc(NS(=O)(=O)c3ccccc3)cc(C)c2C)cc1C [Compound 157] |  |
| < 30% |  | COc1ccccc1-c1cn(Cc2ccccc2)nc1NS(=O)(=O)c1ccccc1 [Compound 113, N-[1-benzyl-4-(2-methoxyphenyl)pyrazol-3-yl]benzenesulfonamide] |  |
| > 60% | 1 to 3 µM | Cc1ccc(C)c(-c2nc(NS(=O)(=O)c3ccccc3)cc(C)c2C)c1 [Compound 139, N-[6-(2,5-Dimethylphenyl)-4,5-dimethyl-2-pyridyl]benzenesulfonamide] |  |
| < 30% |  | Cc1ccccc1-c1cn(Cc2ccccc2)nc1NS(=O)(=O)c1ccccc1 [Compound 115] |  |
| 30 to 60% | < 1 µM | O=S(=O)(Nc1nc(Oc2ccccc2)nc(-c2ccccc2)n1)c1ccccc1 [Compound 125, N-(4-phenoxy-6-phenyl-1,3,5-triazin-2-yl)benzenesulfonamide] |  |
